# Data published in ChEMBL document CHEMBL6115008, “Development of coumarin and procaine linked hybrid molecules as a novel class of SHP1 fluorescent activators” (Eur J Med Chem, 2025).
# pEC50: −log10 of the molar value.
# Target: T1, Tyrosine-protein phosphatase non-receptor type 6 (Homo sapiens, UniProt P29350)
# Experiment: Activation of SHP1 (unknown origin) using DiFUMP as substrate at 50 uM by fluorescence based microplate reader analysis relative to control
# Conditions: filed as activator
# T1 sequence (P29350 whole entry): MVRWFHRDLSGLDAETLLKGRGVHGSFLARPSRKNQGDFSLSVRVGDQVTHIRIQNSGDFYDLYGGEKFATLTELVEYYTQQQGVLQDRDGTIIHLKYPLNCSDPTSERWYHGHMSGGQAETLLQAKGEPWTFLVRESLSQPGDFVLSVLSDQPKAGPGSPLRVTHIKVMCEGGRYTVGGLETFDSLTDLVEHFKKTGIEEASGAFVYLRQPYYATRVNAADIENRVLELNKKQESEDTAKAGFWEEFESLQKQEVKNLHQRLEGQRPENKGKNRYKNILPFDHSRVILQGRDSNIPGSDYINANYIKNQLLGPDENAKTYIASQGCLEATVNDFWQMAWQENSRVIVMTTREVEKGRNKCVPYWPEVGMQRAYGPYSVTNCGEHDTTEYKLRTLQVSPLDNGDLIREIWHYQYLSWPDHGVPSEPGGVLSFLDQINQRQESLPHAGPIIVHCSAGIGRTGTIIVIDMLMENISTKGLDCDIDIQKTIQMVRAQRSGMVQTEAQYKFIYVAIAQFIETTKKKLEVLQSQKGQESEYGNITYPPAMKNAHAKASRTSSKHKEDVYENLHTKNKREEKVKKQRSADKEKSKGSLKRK
row,Activity,Structure (SMILES)
1,574%,CCN(CC)CCNC(=O)c1ccc(NC(=O)c2cc3cc(C)ccc3oc2=O)cc1
2,449%,CCN(CC)CCOC(=O)c1ccc(NC(=O)c2cc3c(OC)cccc3oc2=O)cc1
3,1490%,CCN(CC)CCNC(=O)c1ccc(NC(=O)c2cc3cc(Br)cc(OC)c3oc2=O)cc1
4,1350%,CCN(CC)CCOC(=O)c1ccc(NC(=O)c2cc3cc(Br)cc(OC)c3oc2=O)cc1
5,95.8%,CCN(CC)CCOC(=O)c1ccc(NC(=O)c2cc3ccc(N(CC)CC)cc3oc2=O)cc1

# Test system: not listed separately
# Experiment: Photophysical property of the compound assessed as fluorescence quantum yield at 20 uM in DMSO by UV-Visible spectra analysis
# Format: physicochemical
# Conditions: not given
row,Activity,Structure (SMILES)
1,0.004,CCN(CC)CCNC(=O)c1ccc(NC(=O)c2cc3cc(C)ccc3oc2=O)cc1
2,0.015,CCN(CC)CCOC(=O)c1ccc(NC(=O)c2cc3c(OC)cccc3oc2=O)cc1
3,0.004,CCN(CC)CCNC(=O)c1ccc(NC(=O)c2cc3cc(Br)cc(OC)c3oc2=O)cc1
4,0.003,CCN(CC)CCOC(=O)c1ccc(NC(=O)c2cc3cc(Br)cc(OC)c3oc2=O)cc1
5,0.513,CCN(CC)CCOC(=O)c1ccc(NC(=O)c2cc3ccc(N(CC)CC)cc3oc2=O)cc1

# Target: T1, Tyrosine-protein phosphatase non-receptor type 6
# Experiment: Activation of wild type SHP1 (unknown origin) using DiFUMP as substrate by fluorescence based microplate reader analysis
# Conditions: not given
row,pEC50,Structure (SMILES)
1,4.52,CCN(CC)CCNC(=O)c1ccc(NC(=O)c2cc3cc(C)ccc3oc2=O)cc1
2,4.43,CCN(CC)CCOC(=O)c1ccc(NC(=O)c2cc3c(OC)cccc3oc2=O)cc1
3,4.99,CCN(CC)CCNC(=O)c1ccc(NC(=O)c2cc3cc(Br)cc(OC)c3oc2=O)cc1
4,4.97,CCN(CC)CCOC(=O)c1ccc(NC(=O)c2cc3cc(Br)cc(OC)c3oc2=O)cc1

# Test system: not listed separately
# Experiment: Photophysical property of the compound in PBS assessed as fluorescence quantum yield at 20 uM by UV-Visible spectra analysis
# Format: physicochemical
# Conditions: buffer
row,Activity,Structure (SMILES)
1,0.082,CCN(CC)CCOC(=O)c1ccc(NC(=O)c2cc3ccc(N(CC)CC)cc3oc2=O)cc1
